Assays:
Format in all cases: binding
ADORA3 = biological target: T1, ADORA3 (Homo sapiens, UniProt P0DMS8); test: NanoBRET screen HiBiT-ADORA3 in HEK293
T1 construct: purchased Promega (in-house HiBiT-GPCR construct library, NanoBRET)
T1 sequence (P0DMS8 1-318): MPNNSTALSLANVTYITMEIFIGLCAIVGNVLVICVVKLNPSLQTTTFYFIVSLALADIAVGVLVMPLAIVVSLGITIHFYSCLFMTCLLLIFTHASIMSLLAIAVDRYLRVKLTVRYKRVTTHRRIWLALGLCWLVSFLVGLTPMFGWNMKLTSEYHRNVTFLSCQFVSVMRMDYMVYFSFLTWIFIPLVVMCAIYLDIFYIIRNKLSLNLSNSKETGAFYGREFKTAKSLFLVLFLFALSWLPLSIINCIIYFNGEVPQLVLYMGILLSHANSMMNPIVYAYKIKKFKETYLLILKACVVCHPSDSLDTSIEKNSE
Description: (§1) Each tracer candidate was screened across the entire library of HiBiT-GPCR constructs using NanoBRET as the detection modality. As depicted in Figure 4A, the specificity of interactions was evaluated through decrease in BRET due to competitive displacement of a bound tracer by excess parental compound. Each tracer was analyzed for binding to each HiBiT-GPCR fusion in the absence and in the presence of competing parental compound. Briefly, HEK293 cells were transfected with HiBiT-GPCR constructs diluted into promoterless DNA to reduce expression and maximize translocation to the cell surface. Each tracer candidate was then screened at concentrations of 1 μM and 0.1 μM across cells expressing these fusions. Cells were treated for 1.5 h with tracer either alone or in the presence of 20 μM competing parental compound (i.e., control). BRET was measured upon addition of purified LgBiT and subsequent complementation with HiBiT genetically fused to a GPCR. The specificity of interactions was assessed through a decrease in BRET signal due to competitive displacement of the bound tracer. To further gauge the robustness of these interactions, the fold response over the control (i.e., BRETtracer/BRETcontrol) was calculated. We chose a 1.5-fold response, which translates to ≥7-fold signal over noise as the minimal threshold required to score an interaction as positive. […]. Below we highlight the screening results obtained for our exemplary fluorescent tracers based on Clozapine, Amitriptyline and AZD1283.
(§2) HiBiT-GPCR DNA constructs were diluted in 10 mM Tris pH 8 to a final concentration of 0.01 μg/μL, arrayed in 96-well plates and stored at −20 °C. For transfection, HEK293 cells were suspended in Opti-MEM (without phenol red) supplemented with 2% fetal bovine serum (Seradigm) and 100 units/mL penicillin–streptomycin (Gibco) at a final concentration of 220,000 cells/mL and dispensed into white 96-well plates at 90 μL/well. Subsequent transfections and screens were carried using an Agilent Bravo Automated Liquid Handling Platform. First, the 96-well HiBiT DNA arrays were diluted 25-fold in Opti-MEM (without serum or phenol red) to a final concentration of 0.0004 μg/μL and 20 μL of the diluted DNAs were transferred into new 96-well plates. Next, promoterless carrier DNA (1 μg/μL) was diluted 25-fold (0.04 μg/μL) and then dispensed into the diluted arrays at 20 μL/well. Following brief mixing, Viafect transfection reagent (Promega) diluted 16-fold into Opti-MEM was dispensed into the plates at 40 μL/well. After mixing by pipetting, plates were incubated for 10 min on the pipetting station deck. The DNA-transfection reagent complexes were then added to plates containing cells. To facilitate the screen, 10 μL of DNA-transfection reagent complexes were added in duplicates to the top 4 and bottom 4 rows, resulting in two identical 48-well arrays per plate. Plates with transfected cells were incubated for 18–20 h at 37 °C/5% CO2. A screen of each tracer across the entire library using two different concentrations requires duplicate plates of transfected cells. Depending on the number of tracers being screened, transfections can be scaled up using the same ratios. The next day, for each tracer, four 20× screening solutions in tracer dilution buffer (Promega) were prepared: two duplicates at final concentration of 20 μM and two duplicates at a final concentration of 2 μM. A competing unmodified compound was added to one of each duplicate at a final concentration of 400 μM. The four resulting solutions were diluted 4-fold in Opti-MEM without serum or phenol red to generate 5× solutions (5 µM and 0.5 µM tracer +/− 100 μM competing compound). To screen the library, a BioTek MultiFlo FX liquid dispenser was used to dispense 22.5 µL of tracer solution to the top 4 rows and 22.5 µL tracer + competing compound solution to the 4 bottom rows. Plates were briefly mixed on an orbital shaker and incubated for 1.5 h at room temperature. […]

C5AR1 = biological target: T2, C5AR1 (Homo sapiens, UniProt P21730); test: NanoBRET screen HiBiT-C5AR1 in HEK293
T2 construct: purchased Promega (in-house HiBiT-GPCR construct library, NanoBRET)
T2 sequence (P21730 1-350): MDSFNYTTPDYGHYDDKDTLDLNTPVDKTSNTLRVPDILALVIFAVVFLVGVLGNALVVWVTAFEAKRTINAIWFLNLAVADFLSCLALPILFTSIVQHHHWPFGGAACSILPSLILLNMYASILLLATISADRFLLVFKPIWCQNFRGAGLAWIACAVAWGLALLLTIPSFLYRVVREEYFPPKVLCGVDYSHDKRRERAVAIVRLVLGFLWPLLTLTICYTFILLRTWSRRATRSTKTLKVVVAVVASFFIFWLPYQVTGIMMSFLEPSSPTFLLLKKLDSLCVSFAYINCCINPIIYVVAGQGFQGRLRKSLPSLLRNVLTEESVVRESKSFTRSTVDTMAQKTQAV
Description: as §1, §2

VIPR1 = biological target: T3, VIPR1 (Homo sapiens, UniProt P32241); test: NanoBRET screen HiBiT-VIPR1 in HEK293
T3 construct: purchased Promega (in-house HiBiT-GPCR construct library, NanoBRET)
T3 sequence (P32241 31-457): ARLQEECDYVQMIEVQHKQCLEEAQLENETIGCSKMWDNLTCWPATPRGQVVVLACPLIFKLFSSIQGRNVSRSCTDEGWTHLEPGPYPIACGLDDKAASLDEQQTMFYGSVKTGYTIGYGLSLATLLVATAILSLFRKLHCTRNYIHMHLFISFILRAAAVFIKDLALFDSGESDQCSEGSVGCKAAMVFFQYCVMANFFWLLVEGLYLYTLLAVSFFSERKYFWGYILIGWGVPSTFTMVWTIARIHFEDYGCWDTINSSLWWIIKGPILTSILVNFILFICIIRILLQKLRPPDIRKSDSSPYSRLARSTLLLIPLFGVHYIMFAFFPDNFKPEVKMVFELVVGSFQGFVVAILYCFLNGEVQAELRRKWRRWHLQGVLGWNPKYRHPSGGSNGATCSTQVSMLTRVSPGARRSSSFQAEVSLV
Description: as §1, §2

NPFFR2 = biological target: T4, NPFFR2 (Homo sapiens, UniProt Q9Y5X5); test: NanoBRET screen HiBiT-NPFFR2 in HEK293
T4 construct: purchased Promega (in-house HiBiT-GPCR construct library, NanoBRET)
Description: as §1, §2

GRM2 = biological target: T5, GRM2 (Homo sapiens, UniProt Q14416); test: NanoBRET screen HiBiT-GRM2 in HEK293; settings: GRM2
T5 construct: purchased Promega (in-house HiBiT-GPCR construct library, NanoBRET)
Description: as §1, §2

[1] = tracer at 0.1μM, listed as amitriptyline-b-2-NB590

T5 sequence (Q14416 19-872): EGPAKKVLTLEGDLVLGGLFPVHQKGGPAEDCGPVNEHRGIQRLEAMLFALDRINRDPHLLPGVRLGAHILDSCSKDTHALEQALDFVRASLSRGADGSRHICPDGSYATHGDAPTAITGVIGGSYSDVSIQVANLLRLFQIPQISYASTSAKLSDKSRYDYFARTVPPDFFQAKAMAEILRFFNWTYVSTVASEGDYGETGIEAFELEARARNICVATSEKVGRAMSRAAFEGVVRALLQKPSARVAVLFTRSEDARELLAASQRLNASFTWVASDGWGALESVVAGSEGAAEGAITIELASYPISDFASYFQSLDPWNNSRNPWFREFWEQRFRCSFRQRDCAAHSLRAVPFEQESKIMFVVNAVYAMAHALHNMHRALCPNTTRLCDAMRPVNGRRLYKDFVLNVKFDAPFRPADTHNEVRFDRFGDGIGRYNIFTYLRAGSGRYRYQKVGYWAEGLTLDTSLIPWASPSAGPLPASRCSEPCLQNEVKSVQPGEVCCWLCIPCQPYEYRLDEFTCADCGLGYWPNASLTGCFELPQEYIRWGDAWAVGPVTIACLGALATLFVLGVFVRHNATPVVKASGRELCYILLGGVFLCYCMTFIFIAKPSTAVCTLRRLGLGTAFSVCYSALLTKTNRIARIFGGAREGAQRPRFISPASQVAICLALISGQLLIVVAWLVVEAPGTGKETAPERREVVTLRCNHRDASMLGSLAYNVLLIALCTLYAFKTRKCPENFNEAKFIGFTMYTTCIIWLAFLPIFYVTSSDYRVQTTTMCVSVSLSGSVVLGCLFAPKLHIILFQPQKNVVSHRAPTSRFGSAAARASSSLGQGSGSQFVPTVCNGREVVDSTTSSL
T4 sequence (Q9Y5X5 whole entry): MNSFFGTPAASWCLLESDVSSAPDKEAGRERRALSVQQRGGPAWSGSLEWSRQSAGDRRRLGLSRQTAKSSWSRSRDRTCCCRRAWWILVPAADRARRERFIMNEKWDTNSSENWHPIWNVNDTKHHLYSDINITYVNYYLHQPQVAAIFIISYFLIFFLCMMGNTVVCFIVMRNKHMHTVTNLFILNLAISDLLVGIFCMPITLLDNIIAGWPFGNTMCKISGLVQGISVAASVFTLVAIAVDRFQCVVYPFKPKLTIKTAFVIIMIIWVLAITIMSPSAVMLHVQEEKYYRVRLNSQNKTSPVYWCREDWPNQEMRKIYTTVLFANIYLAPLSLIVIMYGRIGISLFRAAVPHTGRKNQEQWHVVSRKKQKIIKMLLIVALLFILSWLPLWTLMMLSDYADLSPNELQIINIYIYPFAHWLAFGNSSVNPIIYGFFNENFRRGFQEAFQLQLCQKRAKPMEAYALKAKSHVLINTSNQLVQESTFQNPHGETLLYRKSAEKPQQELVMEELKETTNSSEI

Question: Which results are given for `CN(C)CCC=C1c2ccccc2CCc2ccc(C(=O)NCCNC(=O)CCOCCOCCOCCOCCNC(=O)CCc3ccc4n3[B-](F)(F)[N+]3=C(c5ccc[nH]5)C=CC3=C4)cc21` [Amitriptyline-a-2-NB590]?
Answer: NanoBRET Fold Response (ADORA3; tracer at 0.1μM): 1.00; NanoBRET Fold Response (ADORA3; tracer at 1μM): 1.07; NanoBRET Fold Response (C5AR1; tracer at 0.1μM): 1.03; NanoBRET Fold Response (C5AR1; tracer at 1μM): 1.01; NanoBRET Fold Response (VIPR1; tracer at 0.1μM): 0.95; NanoBRET Fold Response (VIPR1; tracer at 1μM): 1.07

Question: `CN(C)CCC=C1c2ccccc2CCc2ccc(C(=O)NCCNC(=O)CCOCCOCCOCCOCCNC(=O)CCc3ccc4n3[B-](F)(F)[N+]3=C(c5ccc[nH]5)C=CC3=C4)cc21` [Amitriptyline-b-2-NB590] was tested. Which “NanoBRET Fold Response” value (ADORA3; [1]) did it give?
Answer: Its value is 0.87.

Question: What about the “NanoBRET Fold Response” value (ADORA3; tracer at 1μM, listed as amitriptyline-b-2-NB590) of the same compound?
Answer: The value was 0.66.

Question: And the “NanoBRET Fold Response” value (C5AR1; [1])?
Answer: The value was 1.01.

Question: What about the “NanoBRET Fold Response” value (C5AR1; tracer at 1μM) of the same compound?
Answer: Its value is 0.97.

Question: And the “NanoBRET Fold Response” value (VIPR1; [1])?
Answer: Its value is 0.98.

Question: And the “NanoBRET Fold Response” value (VIPR1; tracer at 1μM)?
Answer: Its value is 0.96.

Question: And the “NanoBRET Fold Response” value (NPFFR2; tracer at 0.1μM)?
Answer: The value was 1.00.

Question: What about the “NanoBRET Fold Response” value (NPFFR2; tracer at 1μM) of the same compound?
Answer: Its value is 1.03.

Question: What about the “NanoBRET Fold Response” value (GRM2; tracer 0.1μM) of the same compound?
Answer: Its value is 0.97.

Question: What about the “NanoBRET Fold Response” value (GRM2; tracer 1μM) of the same compound?
Answer: The value was 0.98.

Question: `CN(CCC=C1c2ccccc2CCc2ccccc21)C(=O)CCOCCOCCOCCOCCNC(=O)CCc1ccc2n1[B-](F)(F)[N+]1=C(c3ccc[nH]3)C=CC1=C2` [Amitriptyline-e-2-NB590] was tested. Which “NanoBRET Fold Response” value (ADORA3; tracer at 1μM) did it give?
Answer: The value was 0.99.

Question: And the “NanoBRET Fold Response” value (C5AR1; tracer at 1μM)?
Answer: Its value is 1.02.

Question: What about the “NanoBRET Fold Response” value (VIPR1; tracer at 1μM) of the same compound?
Answer: The value was 1.06.

Question: What does the source list for `CN1CCN(C2=Nc3cc(Cl)ccc3Nc3ccc(CNC(=O)CCOCCOCCOCCOCCNC(=O)CCc4ccc5n4[B-](F)(F)[N+]4=C(c6ccc[nH]6)C=CC4=C5)cc32)CC1` [Clozapine-b-2-NB590]?
Answer: NanoBRET Fold Response (ADORA3; ADORA3, 0.1μM tracer): 1.02; NanoBRET Fold Response (ADORA3; ADORA3, 1μM tracer): 1.08; NanoBRET Fold Response (C5AR1; C5AR1, 0.1μM tracer): 0.98; NanoBRET Fold Response (C5AR1; C5AR1, 1μM tracer): 1.02; NanoBRET Fold Response (VIPR1; VIPR1, 0.1μM tracer): 1.12; NanoBRET Fold Response (VIPR1; VIPR1, 1μM tracer): 0.99; NanoBRET Fold Response (NPFFR2; NPFFR2, 0.1μM tracer): 1.02; NanoBRET Fold Response (NPFFR2; NPFFR2, 1μM tracer): 1.00; NanoBRET Fold Response (GRM2; 0.1μM tracer): 1.01; NanoBRET Fold Response (GRM2; 1μM tracer): 1.04

Reference: article PMC8151276, “An Integrated Approach toward NanoBRET Tracers for Analysis of GPCR Ligand Engagement” (Molecules, 2021)
